{"source": "paper PMC6826616", "about": "“Topical 2′-Hydroxyflavanone for Cutaneous Melanoma” (Cancers, 2019)", "key": {"B16-F0 cells": {"tested_on": "B16-F0 cells", "experiment": "EGF-pHrodo endocytosis, B16-F0 (microscopy and flow cytometry)", "assay_type": "cell-based, mouse", "conditions": "Rlip-antisense, Rlip-shRNA, or 10 µM 2HF for 24 h", "experimental": "(§1) Figure 3 Effects of Rlip depletion on epidermal growth factor (EGF) endocytosis of mouse melanoma cells. Representative photomicrographs of Rlip-depleted B16-F0 and B16-F10 cells showing the inhibition of EGF-pHrodo endocytosis. […] Rlip was depleted by treating cells with Rlip-antisense, Rlip-shRNA, or 10 µM 2HF for 24 h as described in Materials and Methods section 4.8. Photographs were taken at identical exposures using 200× magnification.\nFigure 4 Flow cytometry analysis of EGF-pHrodo endocytosis in control or Rlip depleted B16-F0 cells. Flow cytometry analysis of B16-F0 cells was performed 24 h after Rlip depletion by shRNA, RLIP76-antisense, or treatment with […] 2HF. Cells were stained with EGF-pHrodo. EGF-pHrodo-positive cells as shown on scatter plots were identified and gated based on forward and side scatter properties. The PE channel was used for red fluorescence to measure EGF-pHrodo positivity. […] Each flow cytometry analysis plot is a representative example of three independent experiments. […]\nThe effect of Rlip knockdown/depletion by shRNA, RLIP76-antisense (R508), or 2HF on endocytosis was studied in B16 melanoma cell lines. […] Slides were analyzed using a fluorescence microscope (Olympus America, Melville, NY, USA). […]\nThe effect of Rlip knockdown on endocytosis was further checked by flow cytometry. […] After 24 h, cells were trypsinized, washed with cold PBS, and counted. […]"}, "B16-F10 cells": {"tested_on": "B16-F10 cells", "experiment": "EGF-pHrodo endocytosis, B16-F10 (microscopy)", "assay_type": "cell-based, mouse", "conditions": "Rlip-antisense, Rlip-shRNA, or 10 µM 2HF for 24 h", "experimental": "as §1\nThe effect of Rlip knockdown/depletion by shRNA, RLIP76-antisense (R508), or 2HF on endocytosis was studied in B16 melanoma cell lines. The cells were transfected with Rlip shRNA or R508 antisense and their scrambled shRNA and scrambled antisense (CAS) controls as previously described. Briefly, B16 cells were grown in DMEM medium containing 10% FBS on Nunc 4 chamber slides overnight to 70–80% confluence. For RLIP76 knockdown, pSUPER retro puro shRLIP plasmid DNA (8 µg/mL) and RLIP76-antisense (R508; 10 μg/mL final conc.) and their respective controls (scrambled shRNA and CAS) were pre-complexed with Lipofectamine 2000 reagent in Opti-MEM® reduced serum medium for transfection of the cells. Other sets of slides were treated with vehicle (Methanol) or 10 µM 2HF to inhibit Rlip expression. […] Slides were analyzed using a fluorescence microscope (Olympus America, Melville, NY, USA). […]"}, "[1]": {"experiment": "LC-MS/MS analysis of 2HF in serum after topical application", "assay_type": "in vivo, C57BL/6 mice", "conditions": "topical 12 mg 2HF/0.1 mL PLO gel each day for 8 weeks, blood within 2 h after final dosage", "experimental": "C57BL/6 mice were administered either 0.1 mL PLO gel or 12 mg 2HF in 0.1 mL PLO gel topically each day for 8 weeks. On the last day, the blood was collected within 2 h after final dosage, and subjected to LC-MS/MS analyses according to established protocol. Briefly, serum from control and 2HF-treated mice was extracted twice with 500 µL ethyl acetate and the organic layers were collected and evaporated to dryness in a speed-vac. The residue was reconstituted in 40 µL methanol containing 0.1% formic acid (FA) for analysis. An LC-MS method was developed for the quantitative analysis of 2HF using an Agilent 6490 triple quadrupole coupled with an Agilent 1290 UHPLC system. In short, the binary pump delivered buffers A (0.1% FA in water) and buffer B (0.1% FA in acetonitrile) over 10 min with the following gradient: From 10% B to 20% B in 1 min, then ramp to 90% B at 6 min, 10% B at 8 min, 10% B at 8.5 min, column equilibration post analysis was 2 min. An Agilent Zorbax, 0.5 × 150 mm, 5 µm particle size was used for the separation at a flow rate of 50 µL/min."}}, "data": [{"compound": "O=C1CC(c2ccccc2O)Oc2ccccc21", "note": "(stereo not drawn) [2HF, 2′-hydroxyflavanone]", "values": [{"measurement": "EGF-pHrodo endocytosis (fluorescence microscopy)", "setting": "B16-F0 cells", "value": "completely blocked"}, {"measurement": "EGF-pHrodo endocytosis (fluorescence microscopy)", "setting": "B16-F10 cells", "value": "completely blocked"}, {"measurement": "2HF in serum", "setting": "[1]", "value": "4.3 ± 0.4", "unit": "µM"}]}]}
